Reference: patent US20250154138A1, “Small Molecule IL-17A Modulators” (BeiGene, Ltd., priority 2022, published 2025)
Read-outs that look alike come from different tables or passages of the source.

Columns and labels:
[1] = test system: IL-17-induced GROα secretion from HT-29 cells; test: GROα release assay in human colorectal adenocarcinoma epithelial cell (HT-29, ELISA); type: cell-based; settings: Homo sapiens, 10 ng/mL IL-17A, highest concentration 10 μM, read-out: Cellular assay HT29 cell/CXCL1 IC50
Experimental: The purpose of the assay is to test the ability of a compound to neutralize IL17A proteins. IL17 can stimulate human epithelial cells to secrete GROα. The ability of one compound of the invention to neutralize IL-17-induced GROα secretion from the human colorectal adenocarcinoma epithelia cell line HT-29 is tested in this assay.
HT-29 cells (human colorectal adenocarcinoma epithelia cell, ATCC) were stimulated with IL-17A (Novoprotein, #C774) in final concentration of 10 ng/mL. The resultant GROα response was measured using an ELISA kit from Invitrogen (#88-52122). HT-29 cells were cultured in complete medium (McCoy's 5A medium+10% FBS) and maintained in a tissue culture flask using standard techniques. On day 1, detached the cell by using TrypLE (Gibco, #12605036) and used the complete medium to neutralize. The cells were centrifuged at 11,00 rmp for 4 minutes. Re-suspended the cell pellet in complete medium and seeded 50,000 HT-29 cells into the 96-well assay plate (Corning, 3599) at 135 μL complete medium per well. The cells were incubated for overnight, at 37° C./5% CO2 to adherent the plate. On day 2, prepared a 4-fold serial dilution of the tested compound in DMSO. The highest concentration of the compound was 10 μM. Transferred 2 μL of the serial diluted compound from the serial dilution plate into the reagent plate which was contained 198 μL complete medium with 100 ng/mL IL-17A per well. The compounds were incubated with the IL-17A for 15 minutes. 15 μL mixtures from reagent plate were transferred into the cell assay plate. Incubated the plate at 37° C./5% CO2 for 48 hours. After the incubation, on day 4, GROα level were measured with GROα ELISA as the manufacturer's instructions. 50 μL supernatant was collected form the assay plate to ELISA plate. ELISA plate was read at 450 nm on a microplate reader and compared to a standard calibration curve.
Data were processed using GraphPad Prism. GROα concentration was calculated from the standard curve. IC50 was determined using the equation log concentration (inhibitor) against response and fitted to four parameters.

[2] = molecular target: human IL-17A / human IL-17RA (Homo sapiens (Human), UniProt Q16552); test: Human IL-17A biochemical assay (HTRF, blocking of IL-17A binding to IL-17RA); settings: 0.4 nM IL-17A, 0.3 nM IL-17RA, max compound concentration 10 uM
Method in brief: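 HTRF competition: 0.4 nM recombinant human IL-17A pre-incubated 3 h at room temperature with compound (top 10 uM, 2.7-fold, 10 points) in HEPES pH 7.5 buffer, then 0.3 nM IL-17RA added for 1 h, then anti-6His-Tb/anti-human IgG-XL665 detection for 1 h.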

Sequence of human IL-17A / human IL-17RA (Q16552 24-155): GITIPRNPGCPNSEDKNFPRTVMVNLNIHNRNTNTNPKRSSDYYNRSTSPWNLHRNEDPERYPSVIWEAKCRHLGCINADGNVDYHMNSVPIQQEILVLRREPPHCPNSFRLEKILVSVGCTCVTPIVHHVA

Structure (SMILES) | IC50 ([1]; 48 hours) [µM] | IC50 [2] [µM] | IC50 ([1]; HT-29, 48 h) [µM]
CNC(=O)C1(N2C[C@@H](C(C)C)NC2=O)Cc2ccc(NC(=O)[C@@H](NC(=O)Oc3ccccc3)C3CCCCC3)cc2C1 (stereo partly drawn) [Example 51, phenyl ((1S)-1-cyclohexyl-2-((2-((R)-4-isopropyl-2-oxoimidazolidin-1-yl)-2-(methylcarbamoyl)-2,3-dihydro-1H-inden-5-yl)amino)-2-oxoethyl)carbamate] | 2.05 | 0.686 | 
CNC(=O)C1(N2C[C@@H](C(C)C)NC2=O)Cc2ccc(NC(=O)[C@@H](NC(=O)Cc3ccccc3)C3CCCCC3)cc2C1 (stereo partly drawn) [Example 53, 5-((S)-2-cyclohexyl-2-(2-phenylacetamido)acetamido)-2-((R)-4-isopropyl-2-oxoimidazolidin-1-yl)-N-methyl-2,3-dihydro-1H-indene-2-carboxamide] |  | 0.223 | 0.735
CNC(=O)C1(N2C[C@@H](C(C)C)NC2=O)Cc2ccc(NC(=O)[C@@H](NC(=O)c3ccccc3)C3CCCCC3)cc2C1 (stereo partly drawn) [Example 54, 5-((S)-2-benzamido-2-cyclohexylacetamido)-2-((R)-4-isopropyl-2-oxoimidazolidin-1-yl)-N-methyl-2,3-dihydro-1H-indene-2-carboxamide] |  | 0.024 | 0.137
CNC(=O)C1(N2C[C@@H](C(C)C)NS2(=O)=O)Cc2ccc(NC(=O)[C@@H](NC(=O)c3ccnn3C)C3CCCCC3)cc2C1 (stereo partly drawn) [Example 55, N-((1S)-1-cyclohexyl-2-((2-((R)-4-isopropyl-1,1-dioxido-1,2,5-thiadiazolidin-2-yl)-2-(methylcarbamoyl)-2,3-dihydro-1H-inden-5-yl)amino)-2-oxoethyl)-1-methyl-1H-pyrazole-5-carboxamide] |  | 1.05 | 1.82
CNC(=O)C1(N2C[C@@H](Cc3ccc(OC)cc3)NC2=O)Cc2ccc(NC(=O)[C@@H](NC(=O)c3ccnn3C)C3CCCCC3)cc2C1 (stereo partly drawn) [Example 56, N-((1S)-1-cyclohexyl-2-((2-((R)-4-(4-methoxybenzyl)-2-oxoimidazolidin-1-yl)-2-(methylcarbamoyl)-2,3-dihydro-1H-inden-5-yl)amino)-2-oxoethyl)-1-methyl-1H-pyrazole-5-carboxamide] |  | 0.02 | 0.0237
CNC(=O)C1(N2C[C@@H](Cc3cccs3)NC2=O)Cc2ccc(NC(=O)[C@@H](NC(=O)c3ccnn3C)C3CCCCC3)cc2C1 (stereo partly drawn) [Example 57, N-((1S)-1-cyclohexyl-2-((2-(methylcarbamoyl)-2-((R)-2-oxo-4-(thiophen-2-ylmethyl)imidazolidin-1-yl)-2,3-dihydro-1H-inden-5-yl)amino)-2-oxoethyl)-1-methyl-1H-pyrazole-5-carboxamide] |  | 0.334 | 2.15
CNC(=O)C1(N2C[C@@H](C(C)C)NC2=O)Cc2ccc(NC(=O)[C@@H](NC(=O)c3cccnc3)C3CCCCC3)cc2C1 (stereo partly drawn) [Example 58, N-((1S)-1-cyclohexyl-2-((2-((R)-4-isopropyl-2-oxoimidazolidin-1-yl)-2-(methylcarbamoyl)-2,3-dihydro-1H-inden-5-yl)amino)-2-oxoethyl)nicotinamide] |  | 0.595 | 1.44
CNC(=O)C1(N2C[C@@H](C(C)C)NC2=O)Cc2ccc(NC(=O)[C@@H](NC(=O)c3ccnn3C(C)C)C3CCCCC3)cc2C1 (stereo partly drawn) [Example 59, N-((1S)-1-cyclohexyl-2-((2-((R)-4-isopropyl-2-oxoimidazolidin-1-yl)-2-(methylcarbamoyl)-2,3-dihydro-1H-inden-5-yl)amino)-2-oxoethyl)-1-isopropyl-1H-pyrazole-5-carboxamide] |  | 0.093 | 0.0345
CNC(=O)C1(N2C[C@@H](C(C)C)NC2=O)Cc2ccc(NC(=O)[C@@H](NC(=O)c3cnn(C)c3)C3CCCCC3)cc2C1 (stereo partly drawn) [Example 61, N-((1S)-1-cyclohexyl-2-((2-((R)-4-isopropyl-2-oxoimidazolidin-1-yl)-2-(methylcarbamoyl)-2,3-dihydro-1H-inden-5-yl)amino)-2-oxoethyl)-1-methyl-1H-pyrazole-4-carboxamide] |  | 0.857 | 4.96
CNC(=O)C1(N2C[C@@H](Cc3ccc(C)cc3)NC2=O)Cc2ccc(NC(=O)[C@@H](NC(=O)c3ccnn3C)C3CCCCC3)cc2C1 (stereo partly drawn) [Example 62, N-((1S)-1-cyclohexyl-2-((2-((R)-4-(4-methylbenzyl)-2-oxoimidazolidin-1-yl)-2-(methylcarbamoyl)-2,3-dihydro-1H-inden-5-yl)amino)-2-oxoethyl)-1-methyl-1H-pyrazole-5-carboxamide] |  | 0.024 | 0.212
C#CCC1CN(C2(C(=O)NC)Cc3ccc(NC(=O)[C@@H](NC(=O)c4ccnn4C)C4CCCCC4)cc3C2)C(=O)N1 (stereo partly drawn) [Example 63, N-((1S)-1-cyclohexyl-2-((2-(methylcarbamoyl)-2-(2-oxo-4-(prop-2-yn-1-yl)imidazolidin-1-yl)-2,3-dihydro-1H-inden-5-yl)amino)-2-oxoethyl)-1-methyl-1H-pyrazole-5-carboxamide] |  | 0.085 | 0.326
CNC(=O)C1(N2CC(CC3CC3)NC2=O)Cc2ccc(NC(=O)[C@@H](NC(=O)c3ccnn3C)C3CCCCC3)cc2C1 (stereo partly drawn) [Example 65, N-((1S)-1-cyclohexyl-2-((2-(4-(cyclopropylmethyl)-2-oxoimidazolidin-1-yl)-2-(methylcarbamoyl)-2,3-dihydro-1H-inden-5-yl)amino)-2-oxoethyl)-1-methyl-1H-pyrazole-5-carboxamide] |  | 0.713 | 2.03
CNC(=O)C1(N2C[C@@H](C(C)C)NC2=O)Cc2ccc(NC(=O)[C@@H](NC(=O)c3ccnn3C)C3CCC(F)(F)CC3)cc2C1 (stereo partly drawn) [Example 67, N-((1S)-1-(4,4-difluorocyclohexyl)-2-((2-((R)-4-isopropyl-2-oxoimidazolidin-1-yl)-2-(methylcarbamoyl)-2,3-dihydro-1H-inden-5-yl)amino)-2-oxoethyl)-1-methyl-1H-pyrazole-5-carboxamide] |  | 0.07 | 0.365
CC(C)[C@@H]1CN(C2(C(=O)NCC(F)(F)F)Cc3ccc(NC(=O)[C@@H](NC(=O)c4ccnn4C)C4CCCCC4)cc3C2)C(=O)N1 (stereo partly drawn) [Example 68, N-((1S)-1-cyclohexyl-2-((2-((R)-4-isopropyl-2-oxoimidazolidin-1-yl)-2-((2,2,2-trifluoroethyl)carbamoyl)-2,3-dihydro-1H-inden-5-yl)amino)-2-oxoethyl)-1-methyl-1H-pyrazole-5-carboxamide] |  | 0.03 | 0.037
CNC(=O)C1(N2C[C@@H](C(C)C)NC2=O)Cc2ccc(NC(=O)[C@@H](NC(=O)c3cccc(Cl)c3)C3CCCCC3)cc2C1 (stereo partly drawn) [Example 69, 5-((S)-2-(3-chlorobenzamido)-2-cyclohexylacetamido)-2-((R)-4-isopropyl-2-oxoimidazolidin-1-yl)-N-methyl-2,3-dihydro-1H-indene-2-carboxamide] |  | 0.12 | 0.432
CNC(=O)C1(N2CC(C)(C)CNC2=O)Cc2ccc(NC(=O)[C@@H](NC(=O)c3ccnn3C)C3CCCCC3)cc2C1 (stereo partly drawn) [Example 70, N-((1S)-1-cyclohexyl-2-((2-(5,5-dimethyl-2-oxotetrahydropyrimidin-1(2H)-yl)-2-(methylcarbamoyl)-2,3-dihydro-1H-inden-5-yl)amino)-2-oxoethyl)-1-methyl-1H-pyrazole-5-carboxamide] |  | 0.026 | 0.0706
